Read-outs that look alike come from different tables or passages of the source.
Columns and labels:
[1] = target: picrotoxin binding site on GABAA receptors; test: [35S]-TBPS displacement (inhibition of [35S]-TBPS binding); details: non-competitive displacement; duplicate experiments in triplicate; ± SEM
Description: The IC50 values for non-competitive displacers of [^35S]-TBPS from the picrotoxin binding site on GABAA receptors are reported in Table 1.
Results presented are from duplicate experiments performed in triplicate. Error limits are calculated as standard error of the mean. Methods used are known in the art (see Jiang, X., et al., Neurosteroid analogues. 9. Conformationally constrained pregnanes: structure-activity studies of 13,24-cyclo-18,21-dinorcholane analogues of the GABA modulatory and anesthetic steroids (3α,5α)- and […]. J. Med. Chem., 46: 5334-48 (2003)—the contents of which are hereby incorporated by reference in their entirety).

[2] = target: T1, rat α1β2γ2L type GABAA receptors expressed in Xenopus laevis oocytes (Rattus norvegicus, UniProt P18508+P62813+P63138, INS375LLRMFSFK); test: Potentiation of GABA-mediated chloride currents, oocyte electrophysiology; type: cell-based; details: ± SEM; for Oocyte electrophysiology (gating) 10 μM: direct current gated by 10 μM compound in absence of GABA, ratio compound only current/2 μM GABA current; for Oocyte electrophysiology 0.1 μM: ratio of currents in presence/absence of 0.1 μM compound; for Oocyte electrophysiology 0.1 μM / Oocyte electrophysiology 1.0 μM / Oocyte electrophysiology 10 μM: 2 μM GABA, N≥4; for Oocyte electrophysiology 1.0 μM: ratio of currents in presence/absence of 1.0 μM compound; for Oocyte electrophysiology 10 μM: ratio of currents in presence/absence of 10 μM compound
T1 construct: expressed in transfected cells; host or cells: Xenopus laevis oocytes
T1 sequence (P62813 28-455, stated change not applied): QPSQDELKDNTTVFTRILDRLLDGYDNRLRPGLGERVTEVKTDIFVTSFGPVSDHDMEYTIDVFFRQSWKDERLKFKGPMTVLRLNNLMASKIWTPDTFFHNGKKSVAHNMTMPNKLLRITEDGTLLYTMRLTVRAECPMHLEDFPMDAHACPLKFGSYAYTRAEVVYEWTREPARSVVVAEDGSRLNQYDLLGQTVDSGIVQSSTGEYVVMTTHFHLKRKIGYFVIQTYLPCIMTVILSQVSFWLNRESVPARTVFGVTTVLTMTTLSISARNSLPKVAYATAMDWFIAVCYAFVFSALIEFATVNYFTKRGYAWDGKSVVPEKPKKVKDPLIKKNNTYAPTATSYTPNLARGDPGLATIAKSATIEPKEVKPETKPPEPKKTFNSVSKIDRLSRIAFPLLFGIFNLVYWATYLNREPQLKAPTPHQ
T1 sequence (P63138 26-474, stated change not applied): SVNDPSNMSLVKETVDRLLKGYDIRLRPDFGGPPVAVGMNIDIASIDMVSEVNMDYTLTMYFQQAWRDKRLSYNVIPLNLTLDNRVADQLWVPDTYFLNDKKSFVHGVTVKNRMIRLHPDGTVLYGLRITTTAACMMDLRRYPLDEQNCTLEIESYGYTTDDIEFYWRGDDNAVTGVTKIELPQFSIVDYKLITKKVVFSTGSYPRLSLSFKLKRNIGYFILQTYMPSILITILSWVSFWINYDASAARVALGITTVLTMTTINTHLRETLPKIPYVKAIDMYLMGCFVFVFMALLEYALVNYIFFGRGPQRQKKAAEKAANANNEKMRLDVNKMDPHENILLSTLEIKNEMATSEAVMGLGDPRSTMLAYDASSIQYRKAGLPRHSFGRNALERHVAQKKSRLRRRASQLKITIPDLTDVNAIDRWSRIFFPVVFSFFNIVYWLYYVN
T1 sequence (P18508 with tags, fused parts or gaps INS375LLRMFSFK): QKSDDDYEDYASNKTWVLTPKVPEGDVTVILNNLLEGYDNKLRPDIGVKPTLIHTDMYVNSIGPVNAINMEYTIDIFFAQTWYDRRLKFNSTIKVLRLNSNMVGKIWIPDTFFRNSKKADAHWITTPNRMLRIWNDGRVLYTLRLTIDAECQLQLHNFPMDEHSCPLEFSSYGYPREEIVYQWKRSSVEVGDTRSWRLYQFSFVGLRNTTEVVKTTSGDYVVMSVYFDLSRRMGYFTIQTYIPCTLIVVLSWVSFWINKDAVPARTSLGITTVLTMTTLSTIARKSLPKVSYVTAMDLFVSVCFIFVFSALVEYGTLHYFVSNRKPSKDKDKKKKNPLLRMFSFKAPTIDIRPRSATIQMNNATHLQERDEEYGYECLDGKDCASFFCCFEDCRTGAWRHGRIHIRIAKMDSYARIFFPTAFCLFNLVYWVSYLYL
Description: The compounds of the present disclosure were evaluated for the ability to potentiate chloride currents mediated by 2 μM GABA at rat α1β2γ2L type GABAA receptors expressed in Xenopus laevis oocytes and the results are shown in Table 2.
The GABA concentration used for the control response was 2 μM. Each compound was evaluated on at least four different oocytes at the concentrations indicated, and the results reported are the ratio of currents measured in the presence/absence of added compound. Gating represents direct current gated by 10 μM compound in the absence of GABA, and this current is reported as the ratio of compound only current/2 μM GABA current. Error limits are calculated as standard error of the mean (N≥4). Methods used are known in the art (see Jiang, X., et al.).

[3] = test system: tadpole; test: Tadpole loss of righting reflex (LRR) and loss of swimming reflex (LSR); type: in vivo; details: ± SEM
Description: Table 3 discloses the anesthetic effects of the compounds of the present disclosure. In particular, the anesthetic effect of the compounds of the present disclosure on Loss of Righting Reflex (LRR) and Loss of Swimming Reflex (LSR).
Methods used are known in the art (see Jiang, X., et al.). Error limits are calculated as standard error of the mean (N=10 or more animals at each of five or more different concentrations).

[4] = loss of righting reflex, read-out: Tadpole LRR EC50
[5] = loss of swimming reflex, read-out: Tadpole LSR EC50

Structure (SMILES)	IC50 [1]	Oocyte electrophysiology (gating) 10 μM [2]	Oocyte electrophysiology 0.1 μM [2]	Oocyte electrophysiology 1.0 μM [2]	Oocyte electrophysiology 10 μM [2]	EC50 [3, 4]	Tadpole LSR EC50 ([3]; loss of swimming reflex)	melting point	EC50 [3, 5]
C[C@@]12CC[C@H]3C[C@H]4C[C@H](O)CC[C@@H]4C[C@@H]3[C@H]1CCC2=O [MQ-64, (3aR,5aS,6aS,8R,10aR,11aS,11bR)-Hexadecahydro-8-hydroxy-3a-methyl-3H-cyclopent[a]anthracen-3-one]	346 ± 33 nM	0.04 ± 0.03	0.98 ± 0.02	2.21 ± 0.17	8.81 ± 1.87	3080 ± 10 nM	None	152 to 154 °C	–
C[C@@]12CC[C@H]3C[C@H]4C[C@H](O)CC[C@@H]4C[C@@H]3[C@H]1CC[C@]21CO1 [MQ-65, (2′R,3R,3aR,5aS,6aS,8R,10aR,11aS,11bR)-Hexadecahydro-3a-methyl-spiro[3H-cyclopent[a]anthracene-3,2′-oxiran]-8-ol]	251 ± 66 nM	0.02 ± 0.0	1.27 ± 0.04	2.94 ± 0.28	6.86 ± 1.34	2090 ± 120 nM	–	143 to 145 °C	5480 ± 20 nM
C[C@]12CC[C@@H]3C[C@@H]4C[C@@H](O)CC[C@H]4C[C@H]3[C@@H]1CCC2=O [MQ-74, (3aS,5aR,6aR,8S,10aS,11aR,11bS)-Hexadecahydro-8-hydroxy-3a-methyl-cyclopent[a]anthracen-3-one]	1190 nM	−0.01 ± 0.04	0.80 ± 0.06	1.00 ± 0.0	3.88 ± 0.56	3220 ± 30 nM	–	152 to 154 °C	> 10000 nM
C[C@]12CC[C@@H]3C[C@@H]4C[C@@H](O)CC[C@H]4C[C@H]3[C@@H]1CC[C@@]21CO1 [MQ-75, (2′S,3S,3aS,5aR,6aR,8S,10aS,11aR,11bS)-Hexadecahydro-3a-methyl-spiro[3H-cyclopent[a]anthracene-3,2′-oxiran]-8-ol]	226 ± 2 nM	0.13 ± 0.04	1.36 ± 0.03	7.67 ± 0.71	18.86 ± 1.99	260 ± 40 nM	–	140 to 142 °C	950 nM
C[C@]12CC[C@@H]3C[C@@H]4C[C@@H](O)CC[C@H]4C[C@H]3[C@@H]1CC=C2C#N [MQ-76, (3aS,5aR,6aR,8S,10aS,11aR,11bS)-8-Hydroxy-3a-methyl-3a,4,5,5a,6,6a,7,8,9,10,10a,11,11a,11b-Tetradecahydro-1H-cyclopent[a]anthracene-3-carbonitrile]	574 ± 142 nM	0.31 ± 0.30	0.95 ± 0.20	2.08 ± 0.16	9.43 ± 0.77	390 ± 10 nM	–	164 to 166 °C	1730 ± 30 nM
C[C@]12CC[C@@H]3C[C@@H]4C[C@@H](O)CC[C@H]4C[C@H]3[C@@H]1CC[C@@H]2C#N [MQ-77, (3S,3aS,5aR,6aR,8S,10aS,11aR,11bS)-Hexadecahydro-8-hydroxy-3a-methyl-cyclopent[a]anthracene-3-carbonitrile]	400 ± 118 nM	0.02 ± 0.09	1.03 ± 0.10	3.65 ± 0.39	14.80 ± 1.53	590 ± 70 nM	–	–	1730 ± 40 nM
C[C@@]12CC[C@H]3C[C@H]4C[C@H](O)CC[C@@H]4C[C@@H]3[C@H]1CC=C2C#N [MQ-81, (3aR,5aS,6aS,8R,10aR,11aS,11bR)-8-Hydroxy-3a-methyl-3a,4,5,5a,6,6a,7,8,9,10,10a,11,11a,11b-Tetradecahydro-1H-cyclopent[a]anthracene-3-carbonitrile]	174 ± 14 nM	0.09 ± 0.01	1.37 ± 0.14	5.69 ± 0.17	18.39 ± 0.70	770 ± 40 nM	–	165 to 167 °C	1730 ± 40 nM
C[C@@]12CC[C@H]3C[C@H]4C[C@H](O)CC[C@@H]4C[C@@H]3[C@H]1CC(=O)C2 [MQ-82, (3aS,5aS,6aS,8R,10aR,11aS,11bR)-8-Hydroxy-3a-methyl-hexadecahydro-2H-cyclopenta[a]anthracen-2-one]	2680 nM	0.19 ± 0.17	0.80 ± 0.04	0.83 ± 0.06	2.43 ± 0.34	3110 ± 10 nM	–	145 to 147 °C	7930 nM

Reference: patent US10160738B2, “Neuroactive substituted cyclopent[a]anthracenes as modulators for GABA type-A receptors” (priority 2013, dated 2018)
